# Test results taken from patent publication US7642239B2, “Inhibition of placenta growth factor (PLGF) mediated metastasis and/or angiogenesis” (Center for Molecular Medicine and Immunology, priority 2005, dated 2010).
# Marks after values point to notes of the source that are not given here.
# T1: VEGF165 (Homo sapiens, UniProt P15692)
# T1 construct: purchased R&D Systems
# T1 sequence (P15692 27-191 isoform P15692-4): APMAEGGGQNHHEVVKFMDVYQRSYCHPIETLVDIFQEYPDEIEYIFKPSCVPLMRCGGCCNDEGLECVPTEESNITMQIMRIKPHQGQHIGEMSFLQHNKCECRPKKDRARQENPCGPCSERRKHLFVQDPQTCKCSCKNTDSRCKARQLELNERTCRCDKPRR
# T2: PlGF (Homo sapiens, UniProt P49763)
# T2 construct: purchased R&D Systems
# T2 sequence (P49763 19-170 isoform P49763-3 limits assumed): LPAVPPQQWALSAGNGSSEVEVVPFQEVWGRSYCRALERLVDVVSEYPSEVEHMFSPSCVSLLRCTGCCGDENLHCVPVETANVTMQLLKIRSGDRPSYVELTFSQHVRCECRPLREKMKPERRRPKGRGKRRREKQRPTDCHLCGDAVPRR
# B1: Flt-1: human recombinant soluble Flt-1 (sFlt-1) (R&D Systems) (protein)
# chain: SKLKDPELSLKGTQHIMQAGQTLHLQCRGEAAHKWSLPEMVSKESERLSITKSACGRNGKQFCSTLTLNTAQANHTGFYSCKYLAVPTSKKKETESAIYIFISDTGRPFVEMYSEIPEIIHMTEGRELVIPCRVTSPNITVTLKKFPLDTLIPDGKRIIWDSRKGFIISNATYKEIGLLTCEATVNGHLYKTNYLTHRQTNTIIDVQISTPRPVKLLRGHTLVLNCTATTPLNTRVQMTWSYPDEKNKRASVRRRIDQSNSHANIFYSVLTIDKMQNKDKGLYTCRVRSGPSFKSVNTSVHIYDKAFITVKHRKQQVLETVAGKRSYRLSMKVKAFPSPEVVWLKDGLPATEKSARYLTRGYSLIIKDVTEEDAGNYTILLSIKQSNVFKNLTATLIVNVKPQIYEKAVSSFPDPALYPLGSRQILTCTAYGIPQPTIKWFWHPCNHNHSEARCDFCSNNEESFILDADSNMGNRIESITQRMAIIEGKNKMASTLVVADSRISGIYICIASNKVGTVGRNISFYITDVPNGFHVNLEKMPTEGEDLKLSCTVNKFLYRDVTWILLRTVNNRTMHYSISKQKMAITKEHSITLNLTIMNVSLQDSGTYACRARNVYTGEEILQKKEITIRDQEAPYLLRNLSDHTVAISSSTTLDCHANGVPEPQITWFKNNHKIQQEPGIILGPGSSTLFIERVTEEDEGVYHCKATNQKGSVESSAYLTVQGTSDKSN
# modifications: left off: large carriers
# Experiments:
# MDA-MB-468 xenografts = type: in vivo, mice; conditions: 200 μg/dose i.p., twice-weekly, after 4 weeks
# Method: FIG. 5. Treatment of mice bearing MDA-MB-468 xenografts with peptides BP1 or BP3. Mice were treated every 3-4 days with 200 ug BP as described in Methods. Tumor volume was measured 2×/week. *P<0.05 at days 10, 14, 17 and 24 (change in tumor volume (ANOVA)). FIG. 5A—tumors treated with binding peptide 1. FIG. 5B—tumors treated with binding peptide 3.
# Mice bearing MDA-MB-468 xenografts (average tumor volume: 0.19 cm^3) were treated with i.p. injections of individual peptides (200 μg/dose) (FIG. 5). After 4 weeks of twice-weekly treatment, tumor growth was inhibited by 49% and 58% in mice treated with BP1 (FIG. 5A) or BP3 (FIG. 5B), respectively. The effect of BP3 on tumor growth was apparent after 2 weeks of treatment (FIG. 5B), whereas the inhibitory effect of BP1 was evident after one week (FIG. 5A). The average changes in individual tumor volumes during treatment with BP1 were significant (P<0.05) at days 10, 14, 17 and 24 (FIG. 5A). Treatment with BP2 was ineffective; tumors continued to grow at almost the same rate as the mock-treated controls (results not shown). BP4 treatment produced a 20% inhibition of tumor growth (results not shown).
# MDA-MB-231 [1] = experiment: Wound-healing (motility) assay, MDA-MB-231; type: cell-based, human; conditions: for Migrating cells: 18-24 h; for inhibition (block) of PlGF-stimulated motility / migration: soluble Flt-1 2 nM, PD98059 50 μM, Wortmannin 5 nM
# Method: (§1) MCF-7, MDA-MB-23 1, and MDA-MB-468 breast tumor cell lines or HECs were seeded onto sterile glass coverslips in Petri dishes or six-well plates. When the cells were 70-80% confluent, the monolayers were scratched with a sterile plastic pipet tip.
# (§2) Inhibitor concentrations were 50 μM PD98059 (PD98) (mitogen activated protein kinase-kinase 1 [MEK1] inhibitor), 5 nM Wortmannin (phosphatidyl inositol 3 kinase [PI3K] inhibitor), or human recombinant soluble Flt-1 (sFlt-1) (R&D Systems). […] Cells were pre-incubated with PD98 and Wortmannin for 15-30 min before addition of PlGF. Stained (Wright-Giemsa) and mounted coverslips were examined microscopically. Five to ten 100× fields were evaluated by counting the number of cells separated from the wound edges and which appeared to be migrating toward the center of the wound. Results are reported as the average number of cells migrating into the wound/100× field. In some cases data from separate experiments were combined to accommodate inclusion of various treatments in the tables.
# (§3) Antibody concentration was 1 μg/ml. MEK1 inhibitor, PD98059 (PD98), 50 μM. PI3K inhibitor, Wortmannin, 5 nM. […] Values for antibody and inhibitor treatments were from separate experiments which included all relevant controls. […] UT denotes untreated controls. *P<0.01 (ANOVA) compared to UT; † P<0.02 (ANOVA) compared to PlGF only. ‡ P<0.001 (ANOVA) compared to PlGF only.
# MCF-7 = experiment: Wound-healing (motility) assay, MCF-7; type: cell-based, human; conditions: for Migrating cells: 18-24 h
# Method: as §1, §2, §3
# [2] = molecular target: T3, recombinant human Flt-1 fusion protein (Homo sapiens, UniProt P17948); experiment: Free peptide binding and competition ELISA, Flt-1-coated wells; conditions: ELISA-based binding assay
# T3 construct: purchased R & D Systems
# Method: (§4) Competition assays were done with 2.5 or 25 U/ml heparin (Sigma, St. Louis, Mo.). BP1, 3, 4, and a scrambled version of BP3 (scrBP3) were synthesized with a linker followed by the FLAG epitope ([…] SEQ ID NO:5) at the C-terminus. Thirty minutes after addition of the first reagent, the second reagent was added, followed by another 30 minute incubation. Peptide binding was assessed by probing for the FLAG epitope (Prickett et al., Biotechniques 7:580-9, 1989; Castrucci et al., J. Virol. 66:4647-53, 1992). Absorbance was read at 490 nm.
# [3] = test system: MDA-MB-231 s.c. xenograft; experiment: Subcutaneous MDA-MB-231 xenograft growth and lung metastasis; type: in vivo, nude mice; conditions: subsequent experiment, start at 0.07-0.08 cm^3; 200 μg i.p.; mock 0.25
# Method: The tissue-culture-grown human breast tumor cell line, MDA-MB-231, was implanted subcutaneously (s.c.) on the flanks of nude mice. When tumors were visible, the mice were weighed and the tumors measured. Treatment with peptides was begun when tumors averaged about 0.06-0.12 cm^3 in volume. Mice were treated with 200-μg peptide in PBS by i.p. injection at 3-4-day intervals for 4 weeks. Animals were weighed and the tumors measured at each treatment. In a second experiment, the control peptide, CPA, was included. Three days after the final treatment, tumors and lungs were harvested. Tumor burden of the lungs (from experiment 1) was determined by counting colonies (<20 cells), clusters (>20-100 cells), and nodules (>100 cells) seen in all the lung tissue on a total of 4 slides or sections for each mouse. Data are presented as the average number of each size of metastasis for each treatment group (3-4 mice/group). The total number of each was summed for each treatment group, and divided by the total number of mice in that group. The percent inhibition for metastasis was determined by the formula: % inhibition=(# mock-treated−# treated/# mock-treated)×100.
# To test for therapeutic activity of the peptide, BP1, mice were implanted with human breast cancer cells, MDA-MB-231, which produces lung metastases spontaneously when implanted as a subcutaneous tumor. When the tumors averaged 0.12 cm^3 in volume, either mock-treatment or therapy with BP1 was initiated at 200 μg, two times per week for 4 weeks. […] In a subsequent experiment, treatment was commenced when tumors were 0.07-0.08 cm^3. After 4 weeks of treatment, as described, the mean volume of the mock- and CPA-treated tumors was 0.25 and 0.33 cm^3, respectively, whereas BP1-treated tumors averaged 0.04 cm^3 (P<0.05 BP1 vs. mock- or CPA-treated tumors) (FIG. 3A).
# MDA-MB-231 mfp tumor = experiment: Orthotopic mammary fat pad (mfp) MDA-MB-231 model; type: in vivo, SCID mice
# Text: MDA-MB-231, grown in tissue culture, was also implanted in the mammary fat pad (mfp) of SCID mice (3×10^6 cells, 4-5 mice/group). In this model, large pulmonary metastases are less likely to develop (Richert et al., Breast Cancer Res. 7:R819-27, 2005). Peptide treatment was commenced on day 5 after implantation, when small tumors were palpable in all mice (8 treatments). Three days after the final peptide treatment, tumors were removed and weighed. Lungs were harvested and examined microscopically for metastases, as described above.
# MDA-MB-231 [4] = experiment: Matrigel cell invasion assay, MDA-MB-231; type: cell-based, human; conditions: 24 h
# Method: Cellular invasion was determined by addition of 5×10^4cells to growth factor-reduced Matrigel invasion chambers (BD Biosciences Discovery Labware, Bedford, Mass.) (Taylor et al., 2003b; Passaniti et al., 1992, Lab Invest 67, 519-528). Additives to the Matrigel® plugs were pre-incubated together in a total volume of 100 μl PBS at RT for 10 min, after which each additive was added to the Matrigel. Growth factors (2.0 or 0.2 nM), peptide (2 μg/ml), or antibody (1 μg/ml) were added to cells in low serum (0.1% fetal bovine serum [FBS]) medium. Baseline and chemoattractant-based invasion (10% FBS) were included. The number of invading cells was determined by counting the number of cells on the bottom of the invasion chamber membrane after staining at 100× magnification after 24 h (MDA-MB-231) or 48 h (MCF-7, MDA-MB-468). The results of three to five separate experiments are presented.
# MDA-MB-468 = experiment: Wound-healing (motility) assay, MDA-MB-468; type: cell-based, human; conditions: for Migrating cells: 18-24 h
# Method: as §1, §2, §3
# VEGF165 = molecular target: T1, VEGF165; experiment: Free peptide binding ELISA (FLAG epitope probe), VEGF-coated wells; conditions: ELISA-based binding assay
# Method: as §4
# PlGF = molecular target: T2, PlGF; experiment: Free peptide binding ELISA (FLAG epitope probe), PlGF-coated wells; conditions: free peptide; BP3, BP4, BP3scr at up to 50 μM
# Method: as §4
# [5] = PlGF 2 nM ± test agent, relative to PlGF-only value, unit assumed
# [6] = growth factor PlGF 2 nM ± test agent (Flt-1 2 nM, peptide 2 μM, antibody 1 μg/ml, PD98059 50 μM, Wortmannin 5 nM)
# [7] = VEGF 2 nM ± test agent, relative to VEGF-only value, unit assumed
# [8] = growth factor VEGF 2 nM ± test agent (peptide 2 μM, antibody 1 μg/ml)
# [9] = growth factor VEGF 2 nM ± test agent
# [10] = growth factor PlGF 2 nM ± test agent (Flt-1 2 nM, peptide 2 μM, antibody 1 μg/ml)
# [11] = PlGF 2 nM ± test agent, relative to PlGF-only value
# T3 sequence (P17948 with tags, fused parts or gaps limits assumed): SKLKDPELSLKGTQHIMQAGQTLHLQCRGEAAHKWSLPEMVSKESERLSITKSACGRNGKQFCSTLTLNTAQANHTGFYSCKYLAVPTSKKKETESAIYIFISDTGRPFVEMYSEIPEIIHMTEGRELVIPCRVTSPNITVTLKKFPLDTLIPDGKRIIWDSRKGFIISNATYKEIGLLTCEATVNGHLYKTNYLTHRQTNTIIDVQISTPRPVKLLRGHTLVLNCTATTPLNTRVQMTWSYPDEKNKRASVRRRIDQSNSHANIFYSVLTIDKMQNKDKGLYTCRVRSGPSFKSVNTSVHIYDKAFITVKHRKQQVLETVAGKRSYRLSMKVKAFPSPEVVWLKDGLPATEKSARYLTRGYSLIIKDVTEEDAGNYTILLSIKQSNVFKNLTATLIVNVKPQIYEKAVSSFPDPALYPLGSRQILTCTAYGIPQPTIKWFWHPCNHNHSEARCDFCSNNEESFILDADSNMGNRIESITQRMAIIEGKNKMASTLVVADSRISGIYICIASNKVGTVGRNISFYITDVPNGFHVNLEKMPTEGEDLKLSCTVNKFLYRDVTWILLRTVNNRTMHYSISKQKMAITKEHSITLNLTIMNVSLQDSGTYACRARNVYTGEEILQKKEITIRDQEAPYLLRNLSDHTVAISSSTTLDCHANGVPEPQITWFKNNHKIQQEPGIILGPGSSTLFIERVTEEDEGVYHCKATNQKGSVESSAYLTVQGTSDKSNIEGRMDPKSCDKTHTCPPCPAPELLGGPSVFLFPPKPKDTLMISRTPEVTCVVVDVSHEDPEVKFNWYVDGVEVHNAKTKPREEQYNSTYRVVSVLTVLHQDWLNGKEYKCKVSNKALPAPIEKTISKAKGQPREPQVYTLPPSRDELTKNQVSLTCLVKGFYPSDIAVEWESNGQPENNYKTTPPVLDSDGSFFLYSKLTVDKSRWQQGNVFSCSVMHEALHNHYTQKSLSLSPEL
molecule,measurement,setting,value
QDDHLTTGR (listed as Homo sapiens) [BP2],tumor growth inhibition,MDA-MB-468 xenografts,ineffective
"COc1cccc(-c2cc(=O)c3ccccc3o2)c1N [PD98059, reference compound]",Relative activity,MDA-MB-231 [1]; [5],43%
same,Migrating cells,MDA-MB-231 [1]; [6],18.4 ± 8.0‡ cells/100× field
same,inhibition (block) of PlGF-stimulated motility / migration,MDA-MB-231 [1],68%
"CPA: control peptide derived by substituting A for the H, R and D residues in BP1 (SAAYALAIQLAASASSSSCV) [reference compound]",Relative activity,MDA-MB-231 [1]; [7],121%
same,effect on PlGF-stimulated motility (in words),"MDA-MB-231 [1]; antibody 1 μg/ml, peptide 2 μM",had no effect
same,Migrating cells,MDA-MB-231 [1]; [6],39.8 ± 10.6 cells/100× field
same,Migrating cells,MDA-MB-231 [1]; [8],13.4 ± 4.5 cells/100× field
same,Relative activity,MCF-7; [7],111%
same,Migrating cells,MCF-7; [9],19.4 ± 8.9 cells/100× field
same,attenuated affinity for Flt-1,[2],50%
same,mean tumor volume after 4 weeks of treatment,[3],0.33 cm^3
same,tumor weight,"MDA-MB-231 mfp tumor; 8 peptide treatments, mock-treated 0.423±0.089",0.416 ± 0.083 g
same,micrometastasis counts per mouse,"MDA-MB-231 mfp tumor; lung, mock-treated 3.4±1.9",2.8±1.3
same,"invading cells, PlGF plus peptide",MDA-MB-231 [4]; PlGF-stimulated invasion with added peptide,35±17.3 cells
same,Relative activity,MDA-MB-468; [7],104%
same,Migrating cells,MDA-MB-468; [10],21.6 ± 6.1 cells/100× field
same,Migrating cells,MDA-MB-468; [9],14.6 ± 8.0 cells/100× field
same,binding to VEGF (in words),VEGF165,bound
same,binding to PlGF (in words),PlGF,bound
"COC[C@H]1OC(=O)c2coc3c2[C@@]1(C)C1=C(C3=O)[C@@H]2CCC(=O)[C@@]2(C)C[C@H]1OC(C)=O [Wortmannin, reference compound]",Relative activity,MDA-MB-231 [1]; [5],39%
same,Migrating cells,MDA-MB-231 [1]; [6],16.4 ± 5.8‡ cells/100× field
same,inhibition (block) of PlGF-stimulated motility / migration,MDA-MB-231 [1],72%
VEGF,Migrating cells,MDA-MB-231 [1]; [8],11.1 ± 1.8 cells/100× field
same,Migrating cells,MCF-7; [9],12.7 ± 4.1 cells/100× field
same,invading cells,MDA-MB-231 [4]; VEGF 2.0 nM or 0.2 nM,10±8.0 cells
same,Migrating cells,MDA-MB-468; [9],14.0 ± 11.3 cells/100× field
B1,Relative activity,MDA-MB-231 [1]; [11],45
same,Migrating cells,MDA-MB-231 [1]; [6],19.1 ± 8.0† cells/100× field
same,inhibition (block) of PlGF-stimulated motility / migration,MDA-MB-231 [1],55%
same,Relative activity,MCF-7; [11],47
same,Migrating cells,MCF-7; [10],10.4 ± 8.2† cells/100× field
same,block of the stimulatory effect of PlGF on motility,MCF-7; soluble Flt-1 2 nM,67%
same,Relative activity,MDA-MB-468; [11],53
same,Migrating cells,MDA-MB-468; [10],7.8 ± 5.9† cells/100× field
